Test results published in patent EP2812315B1, “PYRROLIC DERIVATIVES, PROCESSES FOR PREPARING THE SAME AND THEIR USES AS A DRUG” (Universite Joseph Fourier, priority 2012, dated 2013).
≈ marks a conversion by molar mass, not a printed value.

Legend:
Format in all cases: cell-based
[1] = test system: Staphylococcus aureus CIP 65.25 (MRSA); assay: MIC determination, microdilution method (CLSI M07-A8); details: 5 x 10^5 CFU/mL, 18 hours incubation
Outline: (§1)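 Bacteria at 5 x 10^5 CFU/mL final are exposed to two-fold serial compound concentrations (0.25-64 mg/L) in Mueller Hinton broth and incubated at 37°C for 18 h. The fastidious H. influenzae receives 10% sheep blood and a 5% CO2 atmosphere. Complete visual inhibition defines the MIC.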

[2] = test system: Staphylococcus aureus ATCC 33592 (MRSA); assay: as above; details: 5 x 10^5 CFU/mL, 18 hours incubation
Outline: as §1

[3] = test system: Staphylococcus aureus MSSA 476 CNR HT 2006 0437; assay: Determination of the minimum bactericidal concentration (MBC), macro-method; details: 18 hours incubation, initial bacterial load 7,70E+05
Experimental: (§2) The MBC against two different strains of Staphylococcus aureus, one susceptible to methicillin (MSSA 476 CNR HT 2006 0437) and one resistant to methicillin (MRSA 252 CNR HT 2006 0436) obtained from Centre National de Reference des Staphylocoques (Lyon, France) were determined using a macro-method. Sterile tubes were filled with a primary bacterial inoculum prepared in Mueller Hinton broth as above (10^6 CFU/ml of final inoculum) and pyrrolic compounds were added at twofold serial concentrations (0.5-128 mg/L of final concentrations for 3h and 3i and 0.0625-128mg/L of final concentration for 3n). After 18 hours incubation of cultures, ten-fold serial dilutions of the cultures with no visible bacterial growth and of the first tube showing visible bacterial growth were prepared. Then 100µl of each dilution were inoculated to Mueller Hinton agar media for 24-48 hours. CFU counts were then determined and the MBC corresponded to the minimal pyrrolic compound concentration for which 99.9% of more bacterial cells were killed after 18 hours of incubation.
(§3) However, this reduction was only 1-2 log CFU/ml, and thus MBC could not be determined (tables VI and VII). Table VI: MBC against Staphylococcus aureus MRSA 252 CNR HT 2006 0436

[4] = test system: Staphylococcus aureus MRSA 252 CNR HT 2006 0436; assay: as above; details: 18 hours incubation, initial bacterial load 9500000
Experimental: as §2, §3

[5] = test system: Staphylococcus warneri (CHUG-Swar2); assay: Other MIC determination, microdilution method (CLSI M07-A9) with modifications; details: clinical strain
Experimental: (§4) The microdilution method recommended by the Clinical and Laboratory Standard Institute [M07-A9, Vol.32, N°2] was used with the following modifications.
(§5) Bacterial inocula were prepared in Mueller Hinton broth (MH2, BioMérieux, Marcy L'Etoile, France). They were dispensed in 96 well microtiter plates (10^6 CFU/ml of final inoculum, 192 µL per well).
(§6) To avoid cross-contaminations in microtiter plates, one row was left blank between each strain tested. Microplates were incubated for 18h at 37 °C in ambient air. Then MICs were read visually and, in case of visual reading difficulties, confirmed using a spectrophotometer at a wavelength of 630 nm (BioTek® EL808 Absorbance Microplate Reader). MICs corresponded to the minimum pyrrolic compound concentrations that allowed complete visual growth inhibition of bacteria. Drug-free cultures served as growth controls.
(§7) We used four Staphylococcus aureus strains. Two reference strains were provided by the French reference center for Staphylococcus spp. (Lyon, France), including one methicillin-susceptible (MSSA 476) and one methicillin-resistant (MRSA 252) S. aureus strains. The two remaining S. aureus strains were purchased from the CRBIP (Centre de Ressources Biologiques de l'Institut Pasteur): a vancomycin-intermediate strain (ATCC 106414) and a S. aureus strain (SA-1199B) resistant to fluoroquinolones due to overexpression of the NorA multidrug efflux pump. Coagulase-negative Staphylococcus strains included three reference strains purchased from CRBIP: a methicillin-susceptible S. epidermidis strain (ATCC 12228), a methicillin-resistant S. epidermidis strain (ATCC 49461), and a methicillin-susceptible S. sciuri strain (ATCC 29061). We also used 37 clinical strains belonging to the following coagulase-negative Staphylococcus species: S. arlettae (two strains), S. capitis (nine strains), S. epidermidis (one strain), S. haemolyticus (six strains), S. hominis (eight strains), S. lugdunensis (one strain), S. massiliensis (one strain), S. pettenkoferi (two strains), S. saprophyticus (two strains), S. simulans (one strain), and S. warneri (four strains) . Identification of the clinical strains was first obtained using VITEK® 2 System (Biomérieux) and confirmed by amplification and sequencing of the tuf gene (Reference: Bergeron, M., O. Dauwalder, M. Gouy, A.-M. Freydiere, M. Bes, H. Meugnier, Y. Benito, J. Etienne, G. Lina, F. Vandenesch, and S. Boisset. Species identification of staphylococci by amplification and sequencing of the tuf gene compared to the gap gene and by matrix-assisted laser desorption ionization time-of-flight mass spectrometry, Eur. J. Clin. Microbial. Infect. Dis. 2011, 30, 343-354).
(§8) The activity of the pyrrolic compounds 3c and 3i was further tested against 32 clinical strains belonging to 11 coagulase-negative Staphylococcus species.

[6] = test system: Staphylococcus capitis (CHUG-Scapi6); assay: as above; details: clinical strain
Experimental: as §4, §5, §6, §7, §8

[7] = test system: Staphylococcus hominis (CHUG-Shom3); assay: as above; details: clinical strain
Experimental: as §4, §5, §6, §7, §8

[8] = test system: Staphylococcus pettenkoferi (CHUG-Spet2); assay: as above; details: clinical strain
Experimental: as §4, §5, §6, §7, §8

[9] = test system: Staphylococcus capitis (CHUG-Scapi7); assay: as above; details: clinical strain
Experimental: as §4, §5, §6, §7, §8

[10] = test system: Staphylococcus capitis (CHUG-Scapi10); assay: as above; details: clinical strain
Experimental: as §4, §5, §6, §7, §8

[11] = test system: Staphylococcus hominis (CHUG-Shom4); assay: as above; details: clinical strain
Experimental: as §4, §5, §6, §7, §8

| Compound | MIC [1] | MIC [2] | CFU counts (bacterial load) ([3]; concentration 0,5 mg/L) | CFU counts (bacterial load) ([3]; concentration 1 mg/L) | CFU counts (bacterial load) ([3]; concentration 2 mg/L) | CFU counts (bacterial load) ([3]; concentration 4 mg/L) | CFU counts (bacterial load) ([3]; concentration 8 mg/L) | CFU counts (bacterial load) ([3]; concentration 16 mg/L) | CFU counts (bacterial load) ([3]; concentration 32 mg/L) | CFU counts (bacterial load) ([3]; concentration 64 mg/L) | CFU counts (bacterial load) ([3]; concentration 128 mg/L) | CFU counts (bacterial load) ([4]; concentration 0,5 mg/L) | CFU counts (bacterial load) ([4]; concentration 1 mg/L) | CFU counts (bacterial load) ([4]; concentration 2 mg/L) | CFU counts (bacterial load) ([4]; concentration 4 mg/L) | CFU counts (bacterial load) ([4]; concentration 8 mg/L) | CFU counts (bacterial load) ([4]; concentration 16 mg/L) | CFU counts (bacterial load) ([4]; concentration 32 mg/L) | CFU counts (bacterial load) ([4]; concentration 64 mg/L) | CFU counts (bacterial load) ([4]; concentration 128 mg/L) | also measured |
| --- | --- | --- | --- | --- | --- | --- | --- | --- | --- | --- | --- | --- | --- | --- | --- | --- | --- | --- | --- | --- | --- |
| CC(=O)c1c(C)[nH]c(C(c2cc3ccccc3o2)c2[nH]c(C)c(C(C)=O)c2C)c1C [3e] | 2 µg/mL (≈ 4.97 µM) | 4 µg/mL (≈ 9.94 µM) |  |  |  |  |  |  |  |  |  |  |  |  |  |  |  |  |  |  |  |
| CC(=O)c1c(C)[nH]c(C(c2[nH]c(C)c(C(C)=O)c2C)c2csc3ccccc23)c1C [3i] | 1 µg/mL (≈ 2.39 µM) | 0.5 µg/mL (≈ 1.19 µM) | 1,46E+08 CFU/ml | 6,00E+07 CFU/ml | 3,55E+06 CFU/ml | 2,72E+05 CFU/ml | 3,01E+05 CFU/ml | 3,51E+05 CFU/ml | 3,41E+05 CFU/ml | 3,21 E+05 CFU/ml | 1,47E+06 CFU/ml | 4,70E+07 CFU/ml | 5,20E+05 CFU/ml | 2,40E+05 CFU/ml | 5,60E+05 CFU/ml | 2,80E+05 CFU/ml | 2,80E+05 CFU/ml | 5,00E+05 CFU/ml | 4,80E+05 CFU/ml | 1,00E+06 CFU/ml | MIC [5]: 1 µg/mL (≈ 2.39 µM); MIC [6]: 1 µg/mL (≈ 2.39 µM); MIC [7]: > 32 µg/mL; MIC [8]: > 16 µg/mL; MIC [9]: 1 µg/mL (≈ 2.39 µM); MIC [10]: 2 µg/mL (≈ 4.78 µM); MIC [11]: 16 µg/mL (≈ 38.2 µM) |
| CC(=O)c1c(C)[nH]c(C(c2ccc(Cl)cc2)c2[nH]c(C)c(C(C)=O)c2C)c1C [3c] | 2 µg/mL (≈ 5.04 µM) | 4 µg/mL (≈ 10.1 µM) |  |  |  |  |  |  |  |  |  |  |  |  |  |  |  |  |  |  | MIC [5]: 8 µg/mL (≈ 20.2 µM); MIC [6]: 8 µg/mL (≈ 20.2 µM); MIC [7]: > 32 µg/mL; MIC [8]: > 32 µg/mL; MIC [9]: 8 µg/mL (≈ 20.2 µM); MIC [10]: 8 µg/mL (≈ 20.2 µM); MIC [11]: > 32 µg/mL |
| CC(=O)c1c(C)[nH]c(C(c2[nH]c(C)c(C(C)=O)c2C)c2csc3ccc(Br)cc23)c1C [3n] |  |  | 2,78E+05 CFU/ml | 1,76E+05 CFU/ml | 2,70E+05 CFU/ml | 2,71E+05 CFU/ml |  | 4,41E+05 CFU/ml | 4,47E+05 CFU/ml | 4,50E+05 CFU/ml | 3,50E+05 CFU/ml | 2,90E+05 CFU/ml | 3,00E+05 CFU/ml | 4,20E+05 CFU/ml | 4,20E+05 CFU/ml | 3,40E+05 CFU/ml | 3,80E+05 CFU/ml |  |  |  | CFU counts (bacterial load) ([3]; concentration 0,25 mg/L): 2,10E+06 CFU/ml; CFU counts (bacterial load) ([3]; concentration 0,125 mg/L): 8,00E+07 CFU/ml; CFU counts (bacterial load) ([3]; concentration 0,0625 mg/L): 2,15E+08 CFU/ml; CFU counts (bacterial load) ([4]; concentration 0,25 mg/L): 2,80E+05 CFU/ml; CFU counts (bacterial load) ([4]; concentration 0,125 mg/L): 1,00E+06 CFU/ml; CFU counts (bacterial load) ([4]; concentration 0,0625 mg/L): 2,90E+07 CFU/ml |
| CC(=O)c1c(C)[nH]c(C(c2[nH]c(C)c(C(C)=O)c2C)c2cccc3ccccc23)c1C [3h] | 1 µg/mL (≈ 2.42 µM) | 1 µg/mL (≈ 2.42 µM) |  |  | 1,63E+08 CFU/ml | 3,20E+05 CFU/ml | 3,34E+05 CFU/ml | 3,20E+05 CFU/ml | 3,70E+05 CFU/ml | 3,90E+05 CFU/ml | 4,30E+05 CFU/ml | 2,10E+08 CFU/ml | 7,50E+07 CFU/ml | 5,60E+05 CFU/ml | 5,50E+05 CFU/ml | 2,40E+05 CFU/ml | 3,20E+05 CFU/ml | 4,20E+05 CFU/ml | 5,59E+05 CFU/ml | 6,28E+05 CFU/ml |  |
| CC(=O)c1c(C)[nH]c(C(c2cc3ccccc3s2)c2[nH]c(C)c(C(C)=O)c2C)c1C [3f] | 2 µg/mL (≈ 4.78 µM) | 8 µg/mL (≈ 19.1 µM) |  |  |  |  |  |  |  |  |  |  |  |  |  |  |  |  |  |  |  |
